Experimental data taken from US20230265391A1, “METHODS AND COMPOSITIONS FOR MAKING AND USING ENDOCARDIAL CELLS” (University Health Network, priority 2020, published 2023).

Legend:
Format in all cases: cell-based, human
[1] = test system: NKX2-5+ CD31+ endocardial-like cells and SIRPA+ cardiomyocytes; assay: Co-culture of NKX2-5+ CD31+ endocardial-like cells (HES3-NKX2-5eGFP/w) with SIRPA+ cardiomyocytes
Protocol: (§1) For culture in the absence of cardiomyocytes, the endocardial or control endothelial cells (HES3-NKX2-5eGFP/w line) isolated at day 9 of differentiation were plated in a 96-well flat bottom microplate (Falcon) coated with Matrigel (25% v/v, Corning) at a density 2.5×10e4 cells per well in StemPro-34 supplemented with penicillin/streptomycin (1%, ThermoFisher), L-glutamine (2 mM, ThermoFisher), ascorbic acid (50 μg/ml, Sigma), monothioglycerol (50 μg/ml, Sigma), rhVEGFA (100 ng/ml, R&D) with or without rhBMP10 (10 ng/ml) or rhBMP4 (10 ng/ml). For co-culture of the two cell types, 5×10e4 hPSC-derived SIRPA+ cardiomyocytes (day 9) were mixed together with either 2.5×10e4 HES3-NKX2-5eGFP/w- or 5×10e4 HES2:RFP-derived endocardial or endothelial cells and cultured for 8 days in 96-well flat bottom microplates (Falcon) coated with Matrigel (25% v/v, Corning) in StemPro-34 supplemented with penicillin/streptomycin (1%, ThermoFisher), L-glutamine (2 mM, ThermoFisher), ascorbic acid (50 μg/ml, Sigma), monothioglycerol (50 μg/ml, Sigma) and rhVEGFA (100 ng/ml, R&D). For inhibition of the NRG-ERBB pathway lapatinib (10 μM, LC labs) was added to the media. Control cardiomyocytes were cultured as aggregates as described above in the same media with or without NRG1 (50 ng/ml). The cultures were incubated in a normoxic environment (5% CO2) and the media was changed every 2 days. […]

[2] = test system: NKX2-5+ CD31+ cells; assay: Generation of NKX2-5+ CD31+ cells from hPSC-derived cardiogenic mesoderm (flow cytometry)
Protocol: To generate endocardial/endothelial cells, hPSCs were differentiated to cardiogenic mesoderm using the protocol described above. At day 3, the EBs were dissociated with TrypLE for 3 min at 37° C. and the cells plated in 96-well flat bottom microplates (Falcon) coated with Matrigel (25% v/v, Corning) at a density of 10e5 cells per well. The monolayers were cultured in StemPro-34 supplemented with penicillin/streptomycin (1%, ThermoFisher), L-glutamine (2 mM, ThermoFisher), ascorbic acid (50 μg/ml, Sigma), monothioglycerol (50 μg/ml, Sigma), transferrin (150 μg/ml, ROCHE) and rhbFGF (50 ng/ml, R&D). For endocardial induction, rhBMP10 (10 ng/ml) was added to the media from day 5 to day 9. For generation of control endothelial cells, VEGFA (100 ng/mL, R&D) was added to the differentiation media from day 3 to day 9. The cultures were incubated in a low oxygen environment (5% CO2, 5%O2, 90% N2) and the media was changed every 2 days. At day 9, HES3-NKX2-5eGFP/w-derived endocardial/endothelial cells were analyzed and isolated based on the expression of NKX2-5:GFP and CD31. The endocardial cells generated from the non-transgenic hPSC lines were analyzed and isolated as CD31+ populations. For dissociation, the monolayers were incubated in Collagenase type 2 (1 mg/ml, Worthington) in HANKs buffer at 37° C. for one hour.
Day 3 EBs were dissociated with TrypLE for 3 min at 37° C. Day 9-23 EBs or mixed populations of cardiomyocytes and endocardial/endothelial cells were dissociated by incubation in Collagenase type 2 (1 mg/ml, Worthington) in HANKS buffer at 37° C. for one hour followed by TrypLE treatment (5 min at 37° C.). The following antibodies were used for staining: anti-SIRPA-PeCy7 (Biolegend, 1:1000), anti-CD31-PE (BD Pharmingen, 1:100), anti-CD31-FITC (BD Pharmingen, 1:100), anti-CD31-AF647 (BD Pharmingen, 1:100), anti-CD90-APC (BD Pharmingen, 1:1000), anti-PDGFRB-BV421 (BD Pharmingen, 1:100), anti-CD105-APC (eBioscience, 1:200), anti-CD56-APC (BD Pharmingen, 1:100), anti-PDGFRA-PE (BD Pharmingen, […]), anti-CD36-APC (Biolegend, 1:100), anti-LDLR-BV421 (Biolegend, 1:100), anti-cardiac isoform of CTNT (ThermoFisher Scientific, 1:2000), or anti-myosin light chain 2 (Abcam, 1:1000), anti-ANP (Abcam, 1:500). For unconjugated primary antibodies, the following secondary antibodies were used for detection: goat anti-mouse IgG-APC (BD Pharmigen, 1:250), or donkey anti-rabbit IgG-AF488 (ThermoFisher Scientific, 1:1000). Detailed antibody information is described in the Key Resources Table. For cell-surface marker analyses, cells were stained for 30 min at 4° C. in FACS buffer consisting of PBS with 5% fetal calf serum (FCS) (Wisent) and 0.02% sodium azide. For intracellular staining, cells were fixed for 15 min at 4° C. with 4% PFA in PBS followed by permeabilization using 90% methanol for 20 min at 4° C. Cells were washed with PBS containing 0.5% BSA (Sigma) and stained with unconjugated primary antibodies in FACS buffer overnight at 4° C. Stained cells were washed with PBS with 0.5% BSA and stained with secondary antibodies in FACS buffer for 1 h at 4° C. Stained cells were analyzed using an LSR II Flow cytometer (BD). For cell sorting, cells were stained, washed and kept in IMDM with 0.2% KnockOut™ serum replacement and sorted using either Influx (BD), FACSAriaII (BD), MoFlo-XDP (BD) of FACSAria Fusion (BD) cells sorter at the Sickids/UHN flow cytometry facility. Data were analyzed using FlowJo software (Tree Star).
Initial experiments were set up to identify the signaling pathways that would promote the generation of a NKX2-5+ CD31+ cell that we propose represents the earliest stage of human endocardial development. The transgenic HES3-NKX2-5eGFP/w reporter line (Elliott et al., 2011, Nat. Methods, 8(12):1037-40) was used to allow for the identification of NKX2-5+ cells by flow cytometry. […]

[3] = test system: RFP+ CD31+ endocardial-like cells and SIRPA+ cardiomyocytes; assay: Co-culture of HES2-RFP CD31+ endocardial-like cells with HES2-GFP SIRPA+ cardiomyocytes; details: lapatinib 10 μM, 8 days co-culture, VEGFA 100 ng/ml
Protocol: as §1

[4] = test system: NKX2-5+ CD31+ endocardial-like cells; assay: 8-day culture of sorted day 9 NKX2-5+ CD31+ endocardial-like or control endothelial cells with VEGFA and BMP
Protocol: For culture in the absence of cardiomyocytes, the endocardial or control endothelial cells (HES3-NKX2-5eGFP/w line) isolated at day 9 of differentiation were plated in a 96-well flat bottom microplate (Falcon) coated with Matrigel (25% v/v, Corning) at a density 2.5×10e4 cells per well in StemPro-34 supplemented with penicillin/streptomycin (1%, ThermoFisher), L-glutamine (2 mM, ThermoFisher), ascorbic acid (50 μg/ml, Sigma), monothioglycerol (50 μg/ml, Sigma), rhVEGFA (100 ng/ml, R&D) with or without rhBMP10 (10 ng/ml) or rhBMP4 (10 ng/ml). For co-culture of the two cell types, 5×10e4 hPSC-derived SIRPA+ cardiomyocytes (day 9) were mixed together with either 2.5×10e4 HES3-NKX2-5eGFP/w- or 5×10e4 HES2:RFP-derived endocardial or endothelial cells and cultured for 8 days in 96-well flat bottom microplates (Falcon) coated with Matrigel (25% v/v, Corning) in StemPro-34 supplemented with penicillin/streptomycin (1%, ThermoFisher), L-glutamine (2 mM, ThermoFisher), ascorbic acid (50 μg/ml, Sigma), monothioglycerol (50 μg/ml, Sigma) and rhVEGFA (100 ng/ml, R&D). For inhibition of the NRG-ERBB pathway lapatinib (10 μM, LC labs) was added to the media. Control cardiomyocytes were cultured as aggregates as described above in the same media with or without NRG1 (50 ng/ml). The cultures were incubated in a normoxic environment (5% CO2) and the media was changed every 2 days.
To further investigate differences between these pathway agonists, BMP10-induced NKX2-5+ CD31+ cells were cultured in the presence of different concentrations of either BMP4 or BMP10 for 8 days. VEGFA was added to maintain the endothelial phenotype of the cells during this culture period.

[5] = test system: NKX2-5+ CD31+ cells; assay: Generation of NKX2-5+ CD31+ cells from hPSC-derived cardiogenic mesoderm (flow cytometry); details: BMP alone (10 ng/ml) in the absence of bFGF; day 9

Compound: c1ccc2c(-c3cnn4cc(-c5ccc(N6CCNCC6)cc5)cnc34)ccnc2c1 [LDN193189]
- NKX2-5 expression in endocardial cells ([1]; cells isolated from co-cultures and cells treated with BMP10, 8 days, different concentrations of LDN193189): partial downregulation

Compound: Cc1ccc2nc(NC(=O)CSc3nc4c(c(=O)n3-c3ccccc3)SCC4)sc2c1 [IWP2, reference compound]
- total number of NKX2-5+ CD31+ cells ([2]; IWP2 added for 4 or 6 days from day 3, day 9): reduced
- frequency of NKX2-5+ CD31+ cells generated ([2]; Wnt inhibition, 2 μM IWP2 for 2, 4 or 6 days from day 3, day 9 read-out): significant reduction

Compound: Cc1c[nH]c(-c2cnc(NCCNc3ccc(C#N)cn3)nc2-c2ccc(Cl)cc2Cl)n1 [CHIR99021, reference compound]
- total number of NKX2-5+ CD31+ cells produced ([2]; 1 μM CHIR99021 for 2, 4 or 6 days from day 3, day 9): did not impact
- frequency of NKX2-5+ CD31+ cells ([2]; 1 μM CHIR99021 for 6 days from day 3, day 9): decrease

Compound: CS(=O)(=O)CCNCc1ccc(-c2ccc3ncnc(Nc4ccc(OCc5cccc(F)c5)c(Cl)c4)c3c2)o1 [lapatinib]
- induction of the trabecular fate by NKX2-5+ CD31+ endocardial-like cells ([1]; lapatinib 10 μM, 8 days co-culture, VEGFA 100 ng/ml): inhibited
- induction of trabecular myocardium markers by RFP+ CD31+ endocardial-like cells [3]: inhibited

Compound: BMP10: Recombinant human BMP10 (R&D)
- NRG1 levels in cultured NKX2-5+ CD31+ cells ([4]; 8 days, BMP10 10 ng/ml versus BMP4 10 ng/ml, VEGFA 100 ng/ml): sustained higher levels
- maintaining the NKX2-5+ CD31+ cell phenotype ([4]; 8 days, VEGFA 100 ng/ml, all concentrations of agonist tested): more effective than BMP4
- NRG1 expression in control endothelial population ([4]; BMP10 added during 8-day culture): did not lead to the upregulation
- populations containing CD31+ cells [5]: None
- proportion of NKX2-5+ CD31+ cells generated ([2]; BMP 10 ng/ml paired with exogenous bFGF, day 9): significantly increased
- NRG1 expression in induced NKX2-5+ CD31+ population (RT-qPCR) ([2]; BMP10-induced versus BMP4-induced cells): higher levels
- fraction of CD105+ cells ([2]; BMP10-induced versus BMP4-induced or control endothelial populations): much larger fraction
- total number of NKX2-5+ CD31+ cells at days 8 and 9 ([2]; BMP10-induced versus BMP4-treated populations): significantly higher
- day of emergence of NKX2-5+ CD31+ cells ([2]; BMP agonist with bFGF, populations persisted to day 12): 8 days
- concentration inducing the highest frequency and number of NKX2-5+ CD31+ cells ([2]; days 5-9, in presence of bFGF 50 ng/ml): 10 ng/mL
